Measurements as given in article PMC12040169 (PLOS Biology, 2025).

Experiment: in vitro
Conditions: human, hela cells, % viability

Q: For `CCn1cnc(S(=O)(=O)N2CCC(OCc3ccccc3)CC2)c1` [CBK305228], which viability at 28.5 h, 10 µM is on record?
A: 73.1%

Q: Which viability at 28.5 h, 10 µM does the source give for `O=C(CC1CCCC1)NCCn1nc(-c2ccco2)ccc1=O` [CBK283864] here?
A: 106%

Q: For `Cc1nc2c(c(=O)[nH]1)CN(Cc1sccc1C)CC2` [CBK283950], which viability at 28.5 h, 10 µM is on record?
A: 91.1%

Q: Which viability at 28.5 h, 10 µM does the source give for `COCCn1ccc(NC(=O)N2CCCC(c3cc(F)ccc3F)C2)n1` (centres unmarked) [CBK305451] here?
A: 79.6%

Q: Which viability at 28.5 h, 10 µM does the source give for `CC(C)NC(=O)NC[C@H]1C[C@@H]2CCN1C[C@@H]2c1cc(-c2ccc(F)cc2)nn1C` [CBK289111] here?
A: 88.5%

Q: For `O=c1[nH]c(=O)c2cc(S(=O)(=O)N3CCCC(c4ccccc4)C3)ccc2[nH]1` (centres unmarked) [CBK286381], which viability at 28.5 h, 10 µM is on record?
A: 106%

Q: For `N#Cc1ccc(NC(=O)Nc2ccccc2)cc1` [CBK086045], which viability at 28.5 h, 10 µM is on record?
A: 87.8%

Q: For `CN1CCN(Cc2nc3c(c(=O)n(C)c(=O)n3C)n2Cc2c(F)cccc2Cl)CC1` [CBK269179], which viability at 28.5 h, 10 µM is on record?
A: 98.3%

Q: With `Cc1noc(C)c1S(=O)(=O)Nc1ccc2[nH]ncc2c1` [CBK062518] as the compound, how does the viability at 28.5 h, 10 µM read?
A: 87.8%

Q: With `CC(C)(C)SCCNc1nc(Cl)nc(N2CCSCC2)n1` [CBK018768] as the compound, how does the viability at 28.5 h, 10 µM read?
A: 80.2%

Q: Which viability at 28.5 h, 10 µM does the source give for `CCOc1ccccc1OCc1nn2c(-c3ccncc3)nnc2s1` [CBK268535] here?
A: 111%

Q: Which viability at 28.5 h, 10 µM does the source give for `O=C(O)CCNc1ncnc2ccccc12` [CBK126920] here?
A: 99.4%

Q: With `CCOC(=O)c1c(NC(=O)CSc2nnc(C)s2)sc2c1CCC2` [CBK263183] as the compound, how does the viability at 28.5 h, 10 µM read?
A: 91.2%

Q: With `O=C1CCc2cc(S(=O)(=O)Nc3ccccc3-c3ccccc3)ccc2N1` [CBK286366] as the compound, how does the viability at 28.5 h, 10 µM read?
A: 92.6%

Q: With `c1nc2nc[nH]c(N3CCN(Cc4ccc5c(c4)OCO5)CC3)c-2n1` [CBK287283] as the compound, how does the viability at 28.5 h, 10 µM read?
A: 83.5%

Q: For `CCN(CC)CCNC(=O)N1CCN(c2ccccc2)CC1` [CBK155202], which viability at 28.5 h, 10 µM is on record?
A: 116%

Q: With `Cc1[nH]c(=O)[nH]c(=S)c1C(=O)Nc1ccc(Cl)cc1C#N` [CBK115502] as the compound, how does the viability at 28.5 h, 10 µM read?
A: 91%

Q: Which viability at 28.5 h, 10 µM does the source give for `CC(NC(=O)CC(C)n1cccn1)c1cc2cc(Cl)ccc2o1` (centres unmarked) [CBK281432] here?
A: 92.6%

Q: For `CC(NS(=O)(=O)c1ccc(F)cc1)C(=O)Nc1ccc(C(N)=O)cc1` (centres unmarked) [CBK267658], which viability at 28.5 h, 10 µM is on record?
A: 104%

Q: For `CCOC(=O)CSc1nc(-c2ccc(C)cc2)cs1` [CBK007039], which viability at 28.5 h, 10 µM is on record?
A: 90.4%

Q: For `CCn1ncc(S(=O)(=O)N2CCC(c3cccc(Cc4ccccc4C)n3)CC2)c1C` [CBK286116], which viability at 28.5 h, 10 µM is on record?
A: 91%

Q: Which viability at 28.5 h, 10 µM does the source give for `Cc1ccccc1-n1c(Cc2ccccc2)nc2c(cnn2-c2ccccc2)c1=O` [CBK262310] here?
A: 91.6%

Q: Which viability at 28.5 h, 10 µM does the source give for `O=C(COc1ccccc1)Nc1cnc(-c2ccc(F)cc2)c(-c2ccsc2)n1` [CBK036958] here?
A: 91.7%

Q: With `Oc1cccc(Sc2nc3ccccc3nc2N2CCCC2)c1` [CBK093753] as the compound, how does the viability at 28.5 h, 10 µM read?
A: 88.5%

Q: For `Cc1ccc(NC(=O)OCC(F)(F)C(F)F)cc1Cl` [CBK026548], which viability at 28.5 h, 10 µM is on record?
A: 93.1%

Q: For `CCOc1ccc(-c2ccnc(N3CCOC(CN)C3)n2)cc1C(=O)O` (centres unmarked) [CBK307644], which viability at 28.5 h, 10 µM is on record?
A: 84%

Q: For `Cc1nc2c(c(=O)[nH]1)CCN(Cc1ccc(-c3ccccc3)cc1)C2` [CBK283970], which viability at 28.5 h, 10 µM is on record?
A: 94.4%

Q: With `O=C(NC(=S)Nc1ccccc1C(=O)O)c1ccc(Cl)cc1` [CBK265044] as the compound, how does the viability at 28.5 h, 10 µM read?
A: 96.2%

Q: For `Cc1ccc2nc(C)cc(C(=O)OCc3ccc(C(N)=O)cc3)c2c1` [CBK296676], which viability at 28.5 h, 10 µM is on record?
A: 97.8%

Q: With `CCn1cnc2cc(NC(=O)CC(C)n3nc(C)cc3C)ccc21` (centres unmarked) [CBK281401] as the compound, how does the viability at 28.5 h, 10 µM read?
A: 94.8%

Q: For `Cc1cccc(C2N3CCC4(CC3)c3[nH]c5ccccc5c3CCN24)n1` (centres unmarked) [CBK284435], which viability at 28.5 h, 10 µM is on record?
A: 90.5%

Q: With `COc1ccc(-c2cc3ncnc(Sc4nnnn4CC4CCCO4)c3s2)cc1` (centres unmarked) [CBK297157] as the compound, how does the viability at 28.5 h, 10 µM read?
A: 95.9%

Q: With `O=C(NCc1ccccc1)c1ccnc2ccccc12` [CBK200191] as the compound, how does the viability at 28.5 h, 10 µM read?
A: 83.7%

Q: For `O=c1nc(O)c(I)cn1C1OC(CO)C(O)C1O` (centres unmarked) [CBK015625], which viability at 28.5 h, 10 µM is on record?
A: 82.3%

Q: For `O=S(=O)(c1ccc(Oc2ccc(S(=O)(=O)N3CCCCCC3)cc2)cc1)N1CCCCCC1` [CBK261729], which viability at 28.5 h, 10 µM is on record?
A: 99%

Q: For `Cc1ccc2c(c1C)NC(=O)CC2c1ccc(F)cc1` (centres unmarked) [CBK288221], which viability at 28.5 h, 10 µM is on record?
A: 101%

Q: Which viability at 28.5 h, 10 µM does the source give for `COC(=O)c1ccc(N2CCN(C)CC2)c([N+](=O)[O-])c1` [CBK264341] here?
A: 99.4%

Q: For `CCCCC(=O)/N=C(\N)Nc1nc2ccccc2o1` [CBK287937], which viability at 28.5 h, 10 µM is on record?
A: 87.8%

Q: For `O=C(O)CSc1nnc(-c2ccc3c(c2)OCO3)n1-c1ccccc1` [CBK131690], which viability at 28.5 h, 10 µM is on record?
A: 105%

Q: Which viability at 28.5 h, 10 µM does the source give for `Cc1cc(C)c2c3c(sc2n1)C(=O)N(C)CC(=O)N3` [CBK287959] here?
A: 83.8%

Q: Which viability at 28.5 h, 10 µM does the source give for `COc1ccc2[nH]cc(CCNC(=O)c3ccc(NC(C)=O)cc3)c2c1` [CBK269296] here?
A: 96.6%

Q: For `CC1CCN(Cc2ccc(-c3ccc(CC(=O)NCc4ccc(C#N)cc4)cn3)cc2)CC1` [CBK158409], which viability at 28.5 h, 10 µM is on record?
A: 93.8%

Q: For `O=C(/C=C(O)/C(O)=C/C(=O)c1ccc(Cl)cc1)c1ccc(Cl)cc1` [CBK261428], which viability at 28.5 h, 10 µM is on record?
A: 102%

Q: For `COCC(=O)Nc1ccc2c(c1)NC(=O)C(C)(C)CO2` [CBK287658], which viability at 28.5 h, 10 µM is on record?
A: 89%

Q: With `CN1C(=O)COc2ccccc2C/C=C/C[C@@H]2[C@H]1CCCN2C(=O)CNS(C)(=O)=O` [CBK292079] as the compound, how does the viability at 28.5 h, 10 µM read?
A: 87.7%

Q: Which viability at 28.5 h, 10 µM does the source give for `O=C1CN(Cc2ccc(Cl)cc2)CCO1` [CBK023036C] here?
A: 88.7%

Q: Which viability at 28.5 h, 10 µM does the source give for `Cc1ccc(S(=O)(=O)NCCNc2ccc(C(F)(F)F)cc2[N+](=O)[O-])cc1` [CBK264945] here?
A: 90.4%

Q: Which viability at 28.5 h, 10 µM does the source give for `c1ccc(CSc2nc3ccccc3s2)nc1` [CBK027737] here?
A: 76.2%

Q: With `N#CC1=C(N)Oc2[nH]nc(-c3ccccc3)c2C12C(=O)N(Cc1ccccc1)c1ccccc12` (centres unmarked) [CBK267787] as the compound, how does the viability at 28.5 h, 10 µM read?
A: 93.7%

Q: Which viability at 28.5 h, 10 µM does the source give for `CCOC(=O)c1[nH]c(C)c(C(=O)N/N=C/c2ccc(-c3ccc(Cl)cc3)o2)c1C` [CBK262503] here?
A: 95%

Q: Which viability at 28.5 h, 10 µM does the source give for `CN(CCCc1cc(-c2cccc(F)c2)n[nH]1)C(=O)c1cnn(C)c1` [CBK305745] here?
A: 86.6%

Q: With `O=[N+]([O-])c1ccccc1/C=C/CN1CCN(C/C=C/c2ccccc2)CC1` [CBK261864] as the compound, how does the viability at 28.5 h, 10 µM read?
A: 93%

Q: With `CC(=O)Nc1ccc(S(=O)(=O)Nc2nnc(C(C)(C)C)s2)cc1` [CBK045499] as the compound, how does the viability at 28.5 h, 10 µM read?
A: 100%

Q: With `Oc1cccc(-c2nccnc2NCCc2ccccn2)c1` [CBK037388] as the compound, how does the viability at 28.5 h, 10 µM read?
A: 104%

Q: For `COc1ccc2[nH]cc(CCNC(=O)N3CCN(CCN4CCOCC4)CC3)c2c1` [CBK155818], which viability at 28.5 h, 10 µM is on record?
A: 101%

Q: For `O=C(O)c1[nH]c2ccccc2c1/C=N/Cc1ccccc1Cl` [CBK294456], which viability at 28.5 h, 10 µM is on record?
A: 98.7%

Q: For `O=C(NC(c1ccc(Cl)cc1)c1cnccn1)C1CCN(C(=O)c2ccccc2)CC1` (centres unmarked) [CBK059634], which viability at 28.5 h, 10 µM is on record?
A: 109%

Q: For `Cc1ccc(C(=O)Nc2nnc(C3=COCCO3)o2)cc1C` [CBK287413], which viability at 28.5 h, 10 µM is on record?
A: 104%

Q: For `Cc1ccnc2nc(C(=O)OCC(=O)Nc3cccc(C#N)c3)nn12` [CBK305068], which viability at 28.5 h, 10 µM is on record?
A: 100%

Q: For `Cc1nc(C)c(C(=O)NCCN2CC(C)CC(C)C2)s1` (centres unmarked) [CBK283071], which viability at 28.5 h, 10 µM is on record?
A: 95.1%

Q: Which viability at 28.5 h, 10 µM does the source give for `COc1ccc2c(c1)CCC1(C)C2=C(C(=O)O)CC1O` (centres unmarked) [CBK022814] here?
A: 103%

Q: For `CS(=O)(=O)c1nc(-c2ccccc2)ns1` [CBK017338], which viability at 28.5 h, 10 µM is on record?
A: 90.6%

Q: Which viability at 28.5 h, 10 µM does the source give for `COc1cc(/C=N/n2cnnc2)ccc1OCc1cccc(C(=O)O)c1` [CBK264249] here?
A: 108%

Q: Which viability at 28.5 h, 10 µM does the source give for `Cc1ccc(N(CC(=O)Nc2ccc(S(=O)(=O)N3CCCCC3)cc2)S(C)(=O)=O)c(C)c1` [CBK263981] here?
A: 99.8%

Same assay, conditions: human, hela cells, % viability, bulk resorufin, single well

Q: For `Cc1ccc(Cl)cc1N1CCNCC1` [CBK013402], which viability at 28.5 h, 10 µM is on record?
A: 94.6%
